These results are taken from patent US20130274210A1, “DENDRIMERS WITH A SACCHARIDE ENDING FOR ANTI-INFLAMMATORY PURPOSES” (UNIVERSITE PAUL SABATIER TOULOUSE III, priority 2010, published 2013).

A short description of data set [1]: Solubility (properties of prepared molecules). It is filed as physicochemical.
The test system of data set [2] is human dendritic cells stimulated with LPS. The conditions noted are these: stimulation by LPS, via DC-SIGN receptor; background statement; cited from earlier work.

Regarding `NNC(=O)CCCCCCCCOC1OC(CO)C(O)C(O)C1OC1OC(CO)C(O)C(O)C1O` (centres unmarked), in data set [1], the solubility entry was “soluble in H2O, MeOH, DMF”.
With `NNC(=O)CCOC1OC(CO)C(O)C(O)C1O` (centres unmarked), the solubility result in data set [1] is recorded as “soluble in H2O, MeOH, DMF”.
Consider `NNC(=O)CCCCCCCCOC1OC(CO)C(O)C(O)C1OC1OC(CO)C(O)C(O)C1OC1OC(CO)C(O)C(O)C1O` (centres unmarked), for which the solubility result in data set [1] is given as “soluble in H2O, MeOH, DMF”.
Turning to Mannosylated lipoarabinomannan [ManLAM], in data set [2], the “production of IL-10 by human dendritic cells” value is on record as “increase in the production of IL-10” and the “production of pro-inflammatory cytokines by human dendritic cells” value is reported as “decrease in the production of pro-inflammatory cytokines”.
